# Source: US11896593B2, “Sulfamate derivative compounds for use in treating or alleviating a psychiatric disorder” (Bio-Pharm Solutions Co., Ltd., priority 2020, dated 2024)
# Marks after values point to notes of the source that are not given here.
# Experiments:
# Type in all cases: in vivo
# [1] = test system: Wistar male rats; test: Forced swim test (rat, rFST); details: for Immobile posture time (sec.)/4 minutes, Treatment: rat, administered orally 60 minutes before testing
# Protocol: In order to determine the anti-depressant effect in rodents, the forced swim test was performed with rats and mice. The forced swim test causes an immobile state by forcing an animal to swim in a confined space. It reflects a state of despair giving up evading such a circumstance. ICR male mice (25 g to 30 g) and Wistar male rats (240 g to 260 g) were purchased from Samtako Bio Korea Co. (Korea) and allowed to acclimatize for 1 week before being tested in a controlled animal facility (temperature 22±2° C., humidity 55±5%). The test compound was dissolved in 20% Tween80 and administered orally 60 minutes before testing. The control group was provided with a corresponding vehicle. […] 15 minutes of forced swimming was performed a day before the experiment. On the day of the experiment, the animal was placed in the cylinder 60 minutes after the administration of the compound and was videotaped for 6 minutes. In the recorded videos, time during which the animal placed its head on the water and remained still without movement was measured based on the remaining 4 minutes excluding the first 2 minutes. It was evaluated that the lower the value of the immobile posture time, the greater the anti-depressant action (Reference; Porsolt R D, Le Pichon M. Jalfre M. 1997. Depression: a new animal model sensitive to antidepressant treatments. Nature. April 21; 266(5604):730-2.).
# The result was shown as the standard error of measurement (SEM) of mean value t mean value. Behavioral data were analyzed by one-way ANOVA. For statistical significance, a value of <0.05 was taken (***p<0.001, **p=0.001˜0.01, *p=0.01˜0.05). Data management and statistics were performed using the Prism software of Windows version 4 (GraphPad Softward Co., San Diego, CA, USA).
# Based on the results of Table 7, the ED50 value of the compound of Example 2 was calculated and shown in Table 7, and after 30 mg/kg and 60 mg/kg of the compounds of the other remaining examples were administered based on TD50 values to perform the forced swim tests, respectively, the administration doses with protected efficacy and protection % at the corresponding administration doses were shown in Table 7.
# [2] = test system: ICR male mice; test: Light dark choice test; details: mouse, 60 minutes before testing
# Protocol: The light-dark choice test is a model for anxiety-like behavior. This test is based on innate aversion of rodents to brightly lit areas and their voluntary exploration behaviors for light stress factors, that is, new environments and light. ICR male mice (30 g to 35 g) were purchased from Orient Bio Korea Co. (Korea) and allowed to acclimatize for 1 week before being tested in a controlled animal facility (temperature 22±2° C., humidity 55±5%). When treatment began, the weight of the animals was 35±5% g. The test compound for oral administration was dissolved in 30% PEG400 and administered at a dose per body weight of 10 mL/kg 60 minutes before testing. The test compound for intraperitoneal administration was dissolved in 20% Tween80 and administered at a dose per body weight of 10 mL/kg 60 minutes before testing. The control group was provided with a corresponding vehicle. An acryl box (45 cm×27 cm×27 cm) was composed of 2 chambers (white color: ⅔ of the box, black color: ⅓ of the box) connected by an opening (7.5 cm×7.5 cm) located at the bottom surface of the center of a partition wall. Each mouse was placed in the white part of the box and allowed to roam freely for a 5-minute session. At the end of the session, mice were returned to their habitat cage, and the experimental box was cleanly wiped with a 70% alcohol solution. All experiments were videotaped. After testing, all video recordings were analyzed. The obtained results are shown in Table 5 below (Reference; Bourin, M., Hascoet, M. 2003. The mouse light/dark box test. European Journal of Pharmacology, 463, 55-65. Bouwknecht, J A., Paylor, R. 2002. Behavioral and physiological mouse assays for anxiety: a survey in nine mouse strains. Behavioural Brain Research, 136, 489-501.).
# [3] = test system: rats that gave birth, chronic administration of corticosterone; test: PPD (chronic CORT induced PPD model), forced swim test; details: postpartum depression rat, 30 mg/kg, intraperitoneally 15 minutes before testing
# Protocol: In order to confirm the effect on postpartum depression in rats, the forced swim test was conducted after chronic administration of corticosterone, a depression-causing substance, to rats that gave birth. The forced swim test causes an immobile state by forcing an animal to swim in a confined space. It reflects a state of despair giving up evading such a circumstance. Rats on the 15th day of pregnancy were purchased from Koatech (Korea) and allowed to acclimatize for 1 week before being tested in a controlled animal facility (temperature 22±2° C., humidity 55±5%). […] In the recorded videos, the time during which the animal placed its head on the water and remained still without movement was measured based on the remaining 4 minutes excluding the first 2 minutes. It was evaluated that the lower the value of the immobile posture time, the greater the anti-depressant action (Reference; S. Brummelte et al. Chronic corticosterone during pregnancy and affects maternal care, cell proliferation and depressive-like behavior in the dam. Hormones and Behavior 58 (2010) 769˜779, Porsolt R D, Le Pichon M, Jalfre M. 1997. Depression: a new animal model sensitive to anti-depressant treatments. Nature. April 21; 266(5604):730˜2.).
# The result was shown as the standard error of measurement (SEM) of mean value±mean value. Behavioral data were analyzed by one-way ANOVA. […]
structure (smiles),measurement,setting,value
"CC1(C)O[C@@H](COS(N)(=O)=O)[C@H](c2ccccc2Cl)O1 [Example 2, ((4S,5S)-5-(2-chlorophenyl)-2,2-dimethyl-1,3-dioxolan-4-yl)methyl sulfamate]",ED50,"[1]; rat forced swim test, po",13.3 mg/kg
same,"Immobile posture time (sec.)/4 minutes, Treatment",[1]; 5 mg/kg,160.7 ± 3.8 sec./4 minutes
same,"Immobile posture time (sec.)/4 minutes, Treatment",[1]; 10 mg/kg,117.3 ± 12.2** sec./4 minutes
same,"Immobile posture time (sec.)/4 minutes, Treatment",[1]; 20 mg/kg,51.0 ± 11.6** sec./4 minutes
same,"White box duration time (sec.)/5 minutes, Treatment","[2]; intraperitoneal, 10 mg/kg",189.0 ± 10.8 sec./5 minutes
same,"White box duration time (sec.)/5 minutes, Treatment","[2]; intraperitoneal, 30 mg/kg",208.1 ± 13.2 sec./5 minutes
same,"White box duration time (sec.)/5 minutes, Treatment","[2]; intraperitoneal, 40 mg/kg",219.2 ± 13.3 sec./5 minutes
same,"White box duration time (sec.)/5 minutes, Treatment","[2]; oral, 10 mg/kg",136.4 ± 4.2 sec./5 minutes
same,"White box duration time (sec.)/5 minutes, Treatment","[2]; oral, 30 mg/kg",140.0 ± 12.3 sec./5 minutes
same,"White box duration time (sec.)/5 minutes, Treatment","[2]; oral, 40 mg/kg",193.1 ± 8.7 sec./5 minutes
same,"Immobile posture time (sec.)/4 minutes, Treatment",[3],5.07 sec./4 minutes
